The source of these data is US20030004172A1, “Fused pyrimidinone matrix metalloproteinase inhibitors” (priority 2001, published 2003).

The target of the assay is MMP-13CD (catalytic domain of collagenase-3) (Homo sapiens, UniProt P45452). Put plainly: Thiopeptolide substrate hydrolysis inhibition assay, MMP-13CD. The assay is classed as biochemical. The text has this:
Thiopeptolide substrates show virtually no decomposition or hydrolysis at or below neutral pH in the absence of a matrix metalloproteinase enzyme.

The mark [1] stands for this setting: Table I, thiopeptolide substrate, HEPES pH 7.0, 22° C., read-out: MMP-13CD IC50.

Like-named read-outs stand apart in the source and are kept apart here.

One may read the IC50 as the midpoint of a concentration-inhibition curve. On to “3-(4-Carboxy-benzyl)-1-methyl-2,4-dioxo-1,2,3,4-tetrahydro-thieno[2,3-d]pyrimidine-6-carboxylic acid 2-ethoxy-benzyl ester [Example 319]”, for which, under setting [1], the half-maximal inhibitory concentration (IC50) was 8000 nM. Still for that read-out and setting: next, “3-(4-Methoxycarboxyl-butyl)-1-methyl-2,4-dioxo-1,2,3,4-tetrahydro-thieno[2,3-d]pyrimidine-6-carboxylic acid benzyl ester [Example 141]”: 150 nM.

For the compound “3-Benzyl-1-methyl-2,4-dioxo-1,2,3,4-tetrahydro-thieno[2,3-d]pyrimidine-6-carboxylic acid 2,2,2-trifluoro-1-trifluoromethyl-ethyl ester [Example 168]”, under setting [1], the IC50 is 25000 nM. Take “3-Benzyl-1-methyl-2,4-dioxo-1,2,3,4-tetrahydro-thieno[2,3-d]pyrimidine-6-carboxylic acid ((S)-2,2-dimethyl-4-phenyl-1,3-dioxinan-5-yl)-amide [Example 341]”: the IC50 under setting [1] turned out to be 14000 nM. Still for that read-out and setting: next, `CC(=O)c1ccc(-n2c(=O)[nH]c3sc(C(=O)OCc4ccccc4)c(C)c3c2=O)cc1` [Example 6, 3-(4-Acetyl-phenyl)-5-methyl-2,4 dioxo-1,2,3,4-tetrahydro-thieno[2,3-d]-pyrimidine-6-carboxylic acid benzyl ester]: more than 100000 nM; `Cc1c(C(=O)OCc2ccccc2)sc2[nH]c(=O)n(-c3ccc([N+](=O)[O-])cc3)c(=O)c12` [Example 8, 5-Methyl-3-(4-nitro-phenyl)-2,4-dioxo-1,2,3,4-tetrahydro-thieno[2,3-d]-6-carboxylic acid benzyl ester]: 15000 nM; `O=C(OCc1ccc2c(c1)OCO2)c1cc2c(=O)n(Cc3ccccc3)c(=O)[nH]c2s1` [Example 10, 3-Benzyl-2,4-dioxo-1,2,3,4-tetrahydro-thieno[2,3-d]pyrimidine-6-carboxylic acid 1,3-benzodioxol-5-ylmethyl ester]: 68 nM. As to `Cn1c(=O)n(Cc2ccccc2)c(=O)c2cc(C(=O)NCc3ccccc3)sc21` [Example 11, 3-Benzyl-1-methyl-2,4-dioxo-1,2,3,4-tetrahydro-thieno[2,3-d]pyrimidine-6-carboxylic acid benzyl amide], the IC50 under setting [1] amounted to 470 nM. On the same count and under the same terms, next, `O=C(OCCc1ccccc1)c1cc2c(=O)n(Cc3ccccc3)c(=O)[nH]c2s1` [Example 12, 3-Benzyl-2,4-dioxo-1,2,3,4-tetrahydro-thieno[2,3-d]pyrimidine-6-carboxylic acid 2-phenylethyl ester]: more than 100000 nM; `O=C(OCc1ccoc1)c1cc2c(=O)n(Cc3ccccc3)c(=O)[nH]c2s1` [Example 13, 3-Benzyl-2,4-dioxo-1,2,3,4-tetrahydro-thieno[2,3-d]pyrimidine-6-carboxylic acid furan-3-ylmethyl ester]: 18000 nM. Turning to `C=Cc1ccc(Cn2c(=O)c3cc(C(=O)OCc4ccccc4)sc3n(C)c2=O)cc1` [Example 20, 1-Methyl-2,4-dioxo-3-(4-vinyl-benzyl)-1,2,3,4-tetrahydro-thieno[2,3-d]pyrimidine-6-carboxylic acid benzyl ester], the IC50 (Table II, micromolar concentration, HEPES pH 7.0, read-out: IC50 MMP-13CD) turned out to be 6.5 nM. As for `Cn1c(=O)n(Cc2ccccc2)c(=O)c2cc(C(=O)OCc3cc4ccccc4o3)sc21` [Example 48, 3-Benzyl-1-methyl-2,4-dioxo-1,2,3,4-tetrahydro-thieno[2,3-d]pyrimidine-6-carboxylic acid benzofuran-2-ylmethyl ester], the IC50 under setting [1] amounted to 1450 nM. As for `COc1ccc(COC(=O)c2cc3c(=O)n(Cc4ccccc4)c(=O)[nH]c3s2)cc1` [Example 50, 3-Benzyl-2,4-dioxo-1,2,3,4-tetrahydro-thieno[2,3-d]pyrimidine-6-carboxylic acid 4-methoxy-benzyl ester], the IC50 under setting [1] came out at 87.5 nM. Same read-out and setting: for `Cn1c(=O)n(Cc2ccc(C(=O)O)cc2)c(=O)c2cc(C(=O)NCc3ccncc3)sc21` [Example 51, 4-{1-Methyl-2,4-dioxo-6-[(pyridin-4-ylmethyl)-carbamoyl]-1,4-dihydro-2H-thieno[2,3-d]pyrimidin-3-ylmethyl}-benzoic acid; compound with trifluoro-acetic acid] the value was 20.5 nM; for `COc1ccc(CNC(=O)c2cc3c(=O)n(Cc4ccc(C(=O)O)cc4)c(=O)n(C)c3s2)cc1` [Example 52, 4-[6-(4-Methoxy-benzylcarbamoyl)-1-methyl-2,4-dioxo-1,4-dihydro-2H-thieno[2,3-d]pyrimidin-3-ylmethyl]-benzoic acid], 3.95 nM; for `COc1ccc(CNC(=O)c2cc3c(=O)n(Cc4ccc(C(=O)OC(C)(C)C)cc4)c(=O)n(C)c3s2)cc1OC` [Example 53, 4-[6-(3,4-Dimethoxy-benzylcarbamoyl)-1-methyl-2,4-dioxo-1,4-dihydro-2H-thieno[2,3-d]pyrimidin-3-ylmethyl]-benzoic acid tert-butyl ester], 30000 nM. Still for that read-out and setting: for `COc1ccc(CNC(=O)c2cc3c(=O)n(Cc4ccc(C(=O)O)cc4)c(=O)n(C)c3s2)cc1OC` [Example 54, 4-[6-(3,4-Dimethoxy-benzylcarbamoyl)-1-methyl-2,4-dioxo-1,4-dihydro-2H-thieno[2,3-d]pyrimidin-3-ylmethyl]-benzoic acid] the value was 4500 nM. As for `Cn1c(=O)n(Cc2ccc(C(=O)O)cc2)c(=O)c2cc(C(=O)NCc3ccc(Br)cc3)sc21` [Example 55, 4-[6-(4-Bromo-benzylcarbamoyl)-1-methyl-2,4-dioxo-1,4-dihydro-2H-thieno[2,3-d]pyrimidin-3-ylmethyl]-benzoic acid], the IC50 under setting [1] was found to be 11 nM. On the same count and under the same terms, for `Cn1c(=O)n(Cc2ccc(C(=O)OC(C)(C)C)cc2)c(=O)c2cc(C(=O)NCc3ccc(Br)cc3)sc21` [Example 56, 4-[6-(4-Bromo-benzylcarbamoyl)-1-methyl-2,4-dioxo-1,4-dihydro-2H-thieno[2,3-d]pyrimidin-3-ylmethyl]-benzoic acid tert-butyl ester] the value was 30000 nM; for `Cn1c(=O)n(Cc2ccc(C(=O)O)cc2)c(=O)c2cc(C(=O)NCc3cc(C(F)(F)F)cc(C(F)(F)F)c3)sc21` [Example 57, 4-[6-(3,5-Bis-trifluoromethyl-benzylcarbamoyl)-1-methyl-2,4-dioxo-1,4-dihydro-2H-thieno[2,3-d]pyrimidin-3-ylmethyl]-benzoic acid], 5600 nM; for `Cn1c(=O)n(Cc2ccc(C(=O)O)cc2)c(=O)c2cc(C(=O)NCc3ccc(Cl)cc3)sc21` [Example 58, 4-[6-(4-Chloro-benzylcarbamoyl)-1-methyl-2,4-dioxo-1,4-dihydro-2H-thieno[2,3-d]pyrimidin-3-ylmethyl]-benzoic acid], 11.5 nM. As to `Cn1c(=O)n(Cc2ccc(C(=O)O)cc2)c(=O)c2cc(C(=O)NCc3ccc(S(N)(=O)=O)cc3)sc21` [Example 59, 4-[1-Methyl-2,4-dioxo-6-(4-sulfamoyl-benzylcarbamoyl)-1,4-dihydro-2H-thieno[2,3-d]pyrimidin-3-ylmethyl]-benzoic acid], the IC50 under setting [1] was determined as 2000 nM. The same measure, in the same setting: for `COc1ccc(CNC(=O)c2cc3c(=O)n(Cc4ccc(F)cc4)c(=O)n(C)c3s2)cc1` [Example 60, 3-(4-Fluoro-benzyl)-1-methyl-2,4-dioxo-1,2,3,4-tetrahydro-thieno[2,3-d]pyrimidine-6-carboxylic acid 4-methoxy-benzylamide] the value was 160 nM. On the same count and under the same terms, next, `COc1cccc(CNC(=O)c2cc3c(=O)n(Cc4ccc(I)cc4)c(=O)n(C)c3s2)c1` [Example 61, 3-(4-Iodo-benzyl)-1-methyl-2,4-dioxo-1,2,3,4-tetrahydro-thieno[2,3-d]pyrimidine-6-carboxylic acid 3-methoxy-benzylamide]: 45 nM.

`COc1ccc(CNC(=O)c2cc3c(=O)n(Cc4ccc(S(=O)(=O)N(C)C)cc4)c(=O)n(C)c3s2)cc1` [Example 62, 3-(4-Dimethylsulfamoyl-benzyl)-1-methyl-2,4-dioxo-1,2,3,4-tetrahydro-thieno[2,3-d]pyrimidine-6-carboxylic acid 4-methoxy-benzylamide]: the IC50 under setting [1] turned out to be 53.5 nM. Same read-out and setting: for `COc1ccc(CNC(=O)c2cc3c(=O)n(Cc4ccc(C#N)cc4)c(=O)n(C)c3s2)cc1` [Example 64, 3-(4-Cyano-benzyl)-1-methyl-2,4-dioxo-1,2,3,4-tetrahydro-thieno[2,3-d]pyrimidine-6-carboxylic acid 4-methoxy-benzylamide] the value was 62 nM; for `COc1cccc(CNC(=O)c2cc3c(=O)n(Cc4ccc(NC(C)=O)cc4)c(=O)n(C)c3s2)c1` [Example 65, 3-(4-Acetylamino-benzyl)-1-methyl-2,4-dioxo-1,2,3,4-tetrahydro-thieno[2,3-d]pyrimidine-6-carboxylic acid 3-methoxy-benzylamide], 53.5 nM. On the same count and under the same terms, for `CCOC(=O)c1ccc(Cn2c(=O)c3cc(C(=O)NCc4cccc(OC)c4)sc3n(C)c2=O)o1` [Example 65a, 5-[6-(3-Methoxy-benzylcarbamoyl)-1-methyl-2,4-dioxo-1,4-dihydro-2H-thieno[2,3-d]pyrimidin-3-ylmethyl]-furan-2-carboxylic acid ethyl ester] the value was 1050 nM; for `COc1cccc(COC(=O)c2cc3c(=O)n(Cc4ccc(C#N)cc4)c(=O)[nH]c3s2)c1` [Example 66, 3-(4-Cyano-benzyl)-2,4-dioxo-1,2,3,4-tetrahydro-thieno[2,3-d]pyrimidine-6-carboxylic acid 3-methoxy-benzyl ester], 27.5 nM.

With `COc1cccc(COC(=O)c2cc3c(=O)n(Cc4ccc(-c5nn[nH]n5)cc4)c(=O)[nH]c3s2)c1` [Example 67, 2,4-Dioxo-3-[4-(2H-tetrazol-4-yl)-benzyl]-1,2,3,4-tetrahydro-thieno[2,3-d]pyrimidine-6-carboxylic acid 3-methoxy-benzyl ester], the IC50 under setting [1] was 1.68 nM. Same read-out and setting: for `COc1cccc(CNC(=O)c2cc3c(=O)n(Cc4ccc(C(=O)OCCN(C)C)cc4)c(=O)n(C)c3s2)c1` [Example 68, 4-[6-(3-Methoxy-benzylcarbamoyl)-1-methyl-2,4-dioxo-1,4-dihydro-2H-thieno[2,3-d]pyrimidin-3-ylmethyl]-benzoic acid 2-dimethylamino-ethyl ester] the value was 63.5 nM.
